Read-outs that look alike come from different tables or passages of the source.
Experiments:
UGT1A6 = biological target: T1, UGT1A6 (Homo sapiens, UniProt P19224); test: HLM UGT substrate cocktail, LC-MS/MS; type: biochemical; details: N-acetylserotonin 1 µM; UDPGA 5 mM; alamethicin; 0.25 mg/mL HLM; 37 °C; read-out: Trans-Resveratrol
T1 construct: native enzyme in pooled human liver microsomes (alamethicin-treated), read by N-acetylserotonin glucuronidation
T1 sequence (P19224 27-532): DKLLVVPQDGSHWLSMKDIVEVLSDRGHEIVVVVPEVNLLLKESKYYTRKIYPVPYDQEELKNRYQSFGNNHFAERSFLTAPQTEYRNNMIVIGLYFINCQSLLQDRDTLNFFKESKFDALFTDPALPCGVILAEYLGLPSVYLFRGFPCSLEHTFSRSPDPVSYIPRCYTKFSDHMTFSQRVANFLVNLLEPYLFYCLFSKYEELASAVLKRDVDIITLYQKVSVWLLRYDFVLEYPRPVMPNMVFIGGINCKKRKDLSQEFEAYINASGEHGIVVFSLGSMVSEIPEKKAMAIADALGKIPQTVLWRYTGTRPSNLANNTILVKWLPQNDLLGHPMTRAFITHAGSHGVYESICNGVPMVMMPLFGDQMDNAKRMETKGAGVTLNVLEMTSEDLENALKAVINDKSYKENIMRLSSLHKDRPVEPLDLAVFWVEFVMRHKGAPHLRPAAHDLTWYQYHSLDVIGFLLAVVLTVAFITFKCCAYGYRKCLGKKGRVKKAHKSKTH
From the text: HLM UGT substrate cocktail, LC-MS/MS on UGT1A6

CYP3A [1] = biological target: T2, CYP3A; test: HLM inhibition kinetics, Dixon / Lineweaver-Burk, LC-MS/MS; type: biochemical, Homo sapiens; details: midazolam 0.1-2 µM; NADPH-generating system; without preincubation; noncompetitive; read-out: trans-Resveratrol / Without Preincubation / Ki
T2 construct: gene CYP3A4; native CYP3A in pooled human liver microsomes, read by midazolam 1'-hydroxylation (nifedipine as second probe)

UGT1A3 = biological target: T3, UGT1A3 (Homo sapiens, UniProt P35503); test: HLM UGT substrate cocktail, LC-MS/MS; type: biochemical; details: chenodeoxycholic acid 2 µM; UDPGA 5 mM; alamethicin; 0.25 mg/mL HLM; 37 °C; read-out: Trans-Resveratrol
T3 construct: native enzyme in pooled human liver microsomes (alamethicin-treated), read by chenodeoxycholic acid 24-glucuronidation
T3 sequence (P35503 29-534): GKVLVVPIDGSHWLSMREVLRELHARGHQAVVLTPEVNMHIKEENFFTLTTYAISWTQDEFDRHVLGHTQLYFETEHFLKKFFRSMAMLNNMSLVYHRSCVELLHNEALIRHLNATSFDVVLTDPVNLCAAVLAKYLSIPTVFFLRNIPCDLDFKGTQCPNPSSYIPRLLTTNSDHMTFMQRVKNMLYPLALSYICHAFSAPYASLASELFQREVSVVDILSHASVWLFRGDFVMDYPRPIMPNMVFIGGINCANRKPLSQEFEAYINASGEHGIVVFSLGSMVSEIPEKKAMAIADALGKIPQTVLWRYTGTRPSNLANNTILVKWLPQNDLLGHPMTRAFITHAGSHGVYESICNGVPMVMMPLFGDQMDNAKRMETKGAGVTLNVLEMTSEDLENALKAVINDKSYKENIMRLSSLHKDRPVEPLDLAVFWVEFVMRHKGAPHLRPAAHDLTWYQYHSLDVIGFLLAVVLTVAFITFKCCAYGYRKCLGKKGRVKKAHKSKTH
From the text: HLM UGT substrate cocktail, LC-MS/MS on UGT1A3

UGT2B7 = biological target: T4, UGT2B7 (Homo sapiens, UniProt P16662); test: HLM UGT substrate cocktail, LC-MS/MS; type: biochemical; details: naloxone 0.2 µM; UDPGA 5 mM; alamethicin; 0.25 mg/mL HLM; 37 °C; read-out: Trans-Resveratrol
T4 construct: native enzyme in pooled human liver microsomes (alamethicin-treated), read by naloxone glucuronidation
T4 sequence (P16662 24-529): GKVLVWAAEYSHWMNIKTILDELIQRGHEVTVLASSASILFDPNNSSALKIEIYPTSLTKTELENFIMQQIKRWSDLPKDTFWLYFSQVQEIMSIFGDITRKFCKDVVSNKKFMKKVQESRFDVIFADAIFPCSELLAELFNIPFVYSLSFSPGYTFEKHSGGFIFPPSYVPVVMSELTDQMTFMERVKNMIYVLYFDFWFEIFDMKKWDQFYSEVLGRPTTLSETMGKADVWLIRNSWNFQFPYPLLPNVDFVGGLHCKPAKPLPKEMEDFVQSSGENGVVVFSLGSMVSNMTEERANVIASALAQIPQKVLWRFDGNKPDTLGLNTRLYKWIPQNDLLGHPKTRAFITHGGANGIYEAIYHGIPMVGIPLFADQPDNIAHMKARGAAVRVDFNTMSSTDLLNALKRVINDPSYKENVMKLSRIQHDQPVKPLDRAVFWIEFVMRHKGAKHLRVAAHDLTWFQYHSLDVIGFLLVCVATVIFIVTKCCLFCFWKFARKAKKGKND
From the text: HLM UGT substrate cocktail, LC-MS/MS on UGT2B7

UGT1A1 [2] = biological target: T5, UGT1A1 (Homo sapiens, UniProt P22309); test: HLM inhibition kinetics, Dixon / Lineweaver-Burk, LC-MS/MS; type: biochemical; details: SN-38 0.5-10 µM; UDPGA; noncompetitive; read-out: trans-Resveratrol / Without Preincubation / Ki
T5 construct: native enzyme in pooled human liver microsomes (alamethicin-treated), read by SN-38 glucuronidation
T5 sequence (P22309 26-533): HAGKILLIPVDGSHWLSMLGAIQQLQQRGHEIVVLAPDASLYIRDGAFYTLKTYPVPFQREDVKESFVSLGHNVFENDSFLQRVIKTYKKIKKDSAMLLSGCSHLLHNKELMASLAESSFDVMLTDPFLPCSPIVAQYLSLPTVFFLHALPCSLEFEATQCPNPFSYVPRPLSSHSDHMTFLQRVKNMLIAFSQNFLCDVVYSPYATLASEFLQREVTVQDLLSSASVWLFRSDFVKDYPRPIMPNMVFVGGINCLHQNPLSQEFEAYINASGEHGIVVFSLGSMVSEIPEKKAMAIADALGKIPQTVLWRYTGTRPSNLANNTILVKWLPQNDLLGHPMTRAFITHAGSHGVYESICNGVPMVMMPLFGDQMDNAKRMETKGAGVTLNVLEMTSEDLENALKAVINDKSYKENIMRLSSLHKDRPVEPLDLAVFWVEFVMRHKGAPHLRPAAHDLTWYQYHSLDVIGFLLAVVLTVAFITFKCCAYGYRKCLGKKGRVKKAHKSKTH

UGT1A4 = biological target: T6, UGT1A4 (Homo sapiens, UniProt P22310); test: HLM UGT substrate cocktail, LC-MS/MS; type: biochemical; details: trifluoperazine 0.5 µM; UDPGA 5 mM; alamethicin; 0.25 mg/mL HLM; 37 °C; read-out: Trans-Resveratrol
T6 construct: native enzyme in pooled human liver microsomes (alamethicin-treated), read by trifluoperazine glucuronidation
T6 sequence (P22310 29-534): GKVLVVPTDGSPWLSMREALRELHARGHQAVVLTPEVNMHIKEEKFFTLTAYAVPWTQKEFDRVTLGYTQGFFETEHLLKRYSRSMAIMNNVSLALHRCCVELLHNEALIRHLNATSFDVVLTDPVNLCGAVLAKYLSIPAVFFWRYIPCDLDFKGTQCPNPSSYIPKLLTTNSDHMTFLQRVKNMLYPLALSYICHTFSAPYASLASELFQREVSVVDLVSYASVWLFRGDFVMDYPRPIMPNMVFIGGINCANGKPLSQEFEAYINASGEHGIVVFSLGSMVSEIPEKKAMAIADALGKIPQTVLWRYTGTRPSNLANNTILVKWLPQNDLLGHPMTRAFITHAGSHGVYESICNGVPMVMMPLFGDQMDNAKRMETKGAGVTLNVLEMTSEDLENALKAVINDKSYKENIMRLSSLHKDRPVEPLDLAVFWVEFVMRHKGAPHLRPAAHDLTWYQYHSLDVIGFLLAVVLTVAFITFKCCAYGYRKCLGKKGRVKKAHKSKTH
From the text: HLM UGT substrate cocktail, LC-MS/MS on UGT1A4

UGT1A1 [3] = biological target: T5, UGT1A1; test: HLM UGT substrate cocktail, LC-MS/MS; type: biochemical; details: SN-38 0.5 µM, UDPGA 5 mM, alamethicin, 0.25 mg/mL HLM, 37 °C
From the text: HLM UGT substrate cocktail, LC-MS/MS on UGT1A1

CYP2A6 = biological target: T7, CYP2A6 (Homo sapiens, UniProt P11509); test: HLM substrate cocktail, LC-MS/MS; type: biochemical; details: coumarin 1 µM; NADPH-generating system; 0.25 mg/mL HLM; 37 °C; without 30 min preincubation; read-out: Trans-resveratrol (μM) / Without Preincubation
T7 construct: native enzyme in pooled human liver microsomes, read by coumarin 7-hydroxylation
T7 sequence (P11509 1-494): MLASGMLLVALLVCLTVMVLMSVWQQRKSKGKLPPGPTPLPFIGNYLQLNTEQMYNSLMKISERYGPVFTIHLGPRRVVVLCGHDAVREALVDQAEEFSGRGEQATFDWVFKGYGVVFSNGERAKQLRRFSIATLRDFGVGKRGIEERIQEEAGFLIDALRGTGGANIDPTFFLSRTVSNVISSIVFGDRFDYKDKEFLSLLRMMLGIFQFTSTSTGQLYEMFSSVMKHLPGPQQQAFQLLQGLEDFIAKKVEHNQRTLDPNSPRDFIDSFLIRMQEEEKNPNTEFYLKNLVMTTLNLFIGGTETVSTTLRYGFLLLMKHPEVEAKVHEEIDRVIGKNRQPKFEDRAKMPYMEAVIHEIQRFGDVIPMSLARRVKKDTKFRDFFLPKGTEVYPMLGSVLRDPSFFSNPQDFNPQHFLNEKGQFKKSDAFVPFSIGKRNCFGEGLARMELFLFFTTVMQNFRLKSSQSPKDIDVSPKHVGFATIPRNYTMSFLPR
From the text: HLM substrate cocktail, LC-MS/MS on CYP2A6

CYP3A [4] = system: T2, CYP3A; test: HLM substrate cocktail, LC-MS/MS; type: biochemical, Homo sapiens; details: midazolam 0.1 µM, NADPH-generating system, 0.25 mg/mL HLM, 37 °C, without 30 min preincubation
From the text: HLM substrate cocktail, LC-MS/MS on CYP3A

UGT1A9 = biological target: T8, UGT1A9 (Homo sapiens, UniProt O60656); test: HLM UGT substrate cocktail, LC-MS/MS; type: biochemical; details: mycophenolic acid 0.2 µM; UDPGA 5 mM; alamethicin; 0.25 mg/mL HLM; 37 °C; read-out: Trans-Resveratrol
T8 construct: native enzyme in pooled human liver microsomes (alamethicin-treated), read by mycophenolic acid glucuronidation
T8 sequence (O60656 26-530): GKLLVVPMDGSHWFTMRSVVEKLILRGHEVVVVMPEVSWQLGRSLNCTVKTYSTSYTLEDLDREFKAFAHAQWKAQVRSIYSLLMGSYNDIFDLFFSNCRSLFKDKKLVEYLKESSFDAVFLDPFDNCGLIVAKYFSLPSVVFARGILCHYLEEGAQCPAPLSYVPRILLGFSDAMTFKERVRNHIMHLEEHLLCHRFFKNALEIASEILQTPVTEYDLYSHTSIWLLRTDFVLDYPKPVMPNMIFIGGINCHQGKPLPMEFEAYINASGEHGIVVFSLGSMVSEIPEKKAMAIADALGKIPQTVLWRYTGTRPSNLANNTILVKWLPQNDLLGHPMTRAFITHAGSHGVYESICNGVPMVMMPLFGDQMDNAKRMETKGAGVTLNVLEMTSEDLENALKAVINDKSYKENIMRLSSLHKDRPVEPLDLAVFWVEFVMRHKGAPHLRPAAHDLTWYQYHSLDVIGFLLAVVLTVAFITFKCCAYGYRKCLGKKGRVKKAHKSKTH
From the text: HLM UGT substrate cocktail, LC-MS/MS on UGT1A9

| IC50 (UGT1A6) [µM] | Ki (CYP3A [1]) [µM] | IC50 (UGT1A3) [µM] | IC50 (UGT2B7) [µM] | Ki (UGT1A1 [2]) [µM] | IC50 (UGT1A4) [µM] | IC50 (UGT1A1 [3]; read-out: Trans-Resveratrol) [µM] | IC50 (CYP2A6) [µM] | IC50 (CYP3A [4]; read-out: Trans-resveratrol (μM) / Without Preincubation) [µM] | IC50 (UGT1A9) [µM] | IC50 (UGT1A1 [3]; read-out: Cis-Resveratrol) [µM] | IC50 (CYP3A [4]; read-out: Cis-resveratrol (μM) / Without Preincubation) [µM] | SMILES |
| --- | --- | --- | --- | --- | --- | --- | --- | --- | --- | --- | --- | --- |
| > 50 | 23.8 ± 2.3 | > 50 | > 50 | 27.4 ± 3.6 | > 50 | 9.57 ± 1.6 | > 50 | 29.2 ± 4.5 | > 50 |  |  | Oc1ccc(/C=C/c2cc(O)cc(O)c2)cc1 [A, 3,5,4′-Trihydroxystilbene] |
| > 50 |  | > 50 | > 50 |  | > 50 |  | > 50 |  | > 50 | > 50 | > 50 | Oc1ccc(/C=C\c2cc(O)cc(O)c2)cc1 [B, 3,5,4′-Trihydroxystilbene] |
